Source: patent US12558326B2, “Method for treating epilepsy” (Xenon Pharmaceuticals Inc., priority 2018, dated 2026)

Test system: DBA/2 mice
Assay: Audiogenic seizure test in DBA/2 mice
Format: in vivo, mouse
Settings: for Clonic Convulsion Incidence / Tonic Extension Incidence / Wild Running Incidence / Clonic Convulsion Latency / Tonic Extension Latency / Wild Running Latency / Audiogenic Response Score: 60 min prior; for Clonic Convulsion Incidence / Tonic Extension Incidence / Wild Running Incidence / Audiogenic Response Score: n=10; for Clonic Convulsion Latency / Tonic Extension Latency / Wild Running Latency / Audiogenic Response Score: mean ± SEM; for Clonic Convulsion Latency / Tonic Extension Latency / Wild Running Latency: maximum 60 s; for Audiogenic Response Score: score 0-4; for change in number of mice showing clonic convulsions / change in number of mice showing tonic convulsions / increase in latency to clonic convulsions / increase in latency to tonic convulsions / reduction of overall audiogenic response score: versus vehicle controls; for anticonvulsant activity in the audiogenic seizure test: (R/S)-fenfluramine at 15 and 30 mg/kg, (R)-fenfluramine at 30 mg/kg
Procedure: DBA/2 is a widely used inbred strain of mouse susceptible to audiogenic seizures due to the asp2 mutation. […] The objective of this study was to evaluate the anticonvulsant activity of (R/S)-fenfluramine and to compare it to (R)-fenfluramine in the DBA/2 mouse.
The method follows that described by Dilrmuiller et al., Neuroreport 4(6):683-686. Mice (DBA/2, 3-4 weeks old) were individually transferred (at 3-5 minute intervals) from the preparation room into an adjacent experimental room and placed in a Plexiglas™ jar (Diameter=40 cm; Height=35 cm) mounted with an electric bell (110-120 dB). Upon activating the bell, the occurrences and latencies to wild running fits, clonic and tonic seizures were measured. The number of deaths was also recorded. An audiogenic response score was assigned to each mouse as 0 (no seizure), 1 (wild running), 2 (clonic convulsion), 3 (tonic extension), or 4 (death). The bell was activated until a tonic seizure occurred or for a maximum of 60 seconds. Ten (10) mice were studied per group. The test was performed blind. All test compounds were dissolved in 0.9% saline (vehicle) and were administered by intraperitoneal (IP) injection at a dose volume of 10 mL/kg. Vehicle alone, (R/S)-fenfluramine (15 or 30 mg/kg) or (R)-fenfluramine (30 mg/kg) were administered 60 minutes prior to seizure induction. The positive reference compound (valproate; 180 mg/kg) was administered 30 minutes prior to seizure induction.

Compound | Clonic Convulsion Incidence (30 mg/kg IP) [%] | Tonic Extension Incidence (30 mg/kg IP) [%] | Wild Running Incidence (30 mg/kg IP) [%] | Clonic Convulsion Latency (30 mg/kg IP) [s] | Tonic Extension Latency (30 mg/kg IP) [s] | Wild Running Latency (30 mg/kg IP) [s] | Audiogenic Response Score (30 mg/kg IP) | change in number of mice showing clonic convulsions (30 mg/kg IP) [%] | change in number of mice showing tonic convulsions (30 mg/kg IP) [%] | increase in latency to clonic convulsions (30 mg/kg IP) | increase in latency to tonic convulsions (30 mg/kg IP) | reduction of overall audiogenic response score (30 mg/kg IP) [%] | anticonvulsant activity in the audiogenic seizure test | also measured
CCNC(C)Cc1cccc(C(F)(F)F)c1 (racemic) [(rac)-fenfluramine, (R/S)—N-ethyl-1-(3-(trifluoromethyl)phenyl)propan-2-amine] | 10 | 0 | 80 | 55.3 ± 4.8 | 60.0 ± 0.0 | 16.6 ± 7.4 | 0.9 ± 0.18 | −90 | −100 | +853% | +641% | 72 | clear anticonvulsant activity | Clonic Convulsion Incidence (15 mg/kg IP): 60%; Tonic Extension Incidence (15 mg/kg IP): 0%; Wild Running Incidence (15 mg/kg IP): 100%; Clonic Convulsion Latency (15 mg/kg IP): 31.4 ± 7.8 s; Tonic Extension Latency (15 mg/kg IP): 60.0 ± 0.0 s; Wild Running Latency (15 mg/kg IP): 4.0 ± 0.7 s; Audiogenic Response Score (15 mg/kg IP): 1.6 ± 0.16; change in number of mice showing clonic convulsions (15 mg/kg IP): −40%; change in number of mice showing tonic convulsions (15 mg/kg IP): −100%; increase in latency to clonic convulsions (15 mg/kg IP): +441%; increase in latency to tonic convulsions (15 mg/kg IP): +641%; reduction of overall audiogenic response score (15 mg/kg IP): 50%
CCN[C@H](C)Cc1cccc(C(F)(F)F)c1 [(R)-fenfluramine, (R)—N-ethyl-1-(3-(trifluoromethyl)phenyl)propan-2-amine] | 60 | 0 | 100 | 31.9 ± 7.7 | 60.0 ± 0.0 | 5.0 ± 1.4 | 1.6 ± 0.16 | −40 | −100 | +450% | +641% | 50 | clear anticonvulsant activity | –
